Experimental data published in patent US20190350930A1, “COMPOSITION FOR CONTROLLING GASTROESOPHAGEAL REFLUX DISEASES” (bitop AG, priority 2016, published 2019).

Tested on: mucus-forming epithelial cells TR146
Assay: in vitro cell culture model: TR146 cells damaged with acidic HCl/pepsin solution, then incubated with ectoine; cell count by neutral red cytotoxicity assay
Assay type: cell-based
Conditions: FIG. 1
Description: The cells were treated with acid solutions containing the digestive enzyme pepsin and following this treated with ectoine. TR146 cells were added to a microplate having 96 wells, with the cells being allowed to grow until the surface was almost completely covered. The cells were then treated for 10 min. with a diluted acidic HCl solution together with pepsin in a cell culture medium. The concentration of pepsin was 2 U/ml. Following this, the cells were washed with PBS (phosphate buffered saline) and incubated overnight either with ectoine or for control purposes with pure solvent. After incubation, a cell count determination was carried out using a […] for which a cyanine-based nucleic acid dye was employed. The assay is based on the fact that the plasma membrane of damaged or dead cells becomes permeable to the dye and the dye binds to the DNA of the cell, which is associated with a corresponding increase in fluorescence. For […] control, cells were treated with 0.1% sodium dodecyl sulfate (SDS) solution as denaturing agent. Other cells (full medium) were not treated with acid/pepsin.

## CC1=NCC[C@@H](C(=O)O)N1 (stereo in doubt) [ectoine, 2-methyl-1,4,5,6-tetrahydropyrimidine-4-carboxylic acid]
50 mM ectoine, overnight incubation after 10 min acidic HCl solution with pepsin 2 U/ml
  effect with respect to the regeneration of the cells: excellent effect
Cells treated with ectoine (50 mM) after acid/pepsin, compared with full-medium cells not treated with acid/pepsin
  cell viability: comparable to that of cells that were not subjected to a treatment with an acidic pepsin solution
